Assay results reported in US20170058314A1, “NOVEL METHODOLOGY FOR IDENTIFYING ANTI-PERSISTER ACTIVITY AND ANTIMICROBIAL SUSCEPTIBILITY FOR BORRELIA BURGDORFERI AND OTHER BACTERIA” (priority 2014, published 2017).
Values after ≈ are worked out from the molar mass of the structure shown. Marks after values point to notes of the source that are not given here.

Experiments:
[1] = system: B. burgdorferi (growing, strain B31); test: MIC determination, standard microdilution method; type: cell-based, Borrelia burgdorferi
[2] = system: log phase and stationary phase B. burgdorferi culture; test: Antibiotic exposure assay, SYBR Green I/PI (drugs alone and combinations); conditions: for Live cell %, ten day old stationary phase culture (in brackets): 10 μg/mL drugs or combinations; for viability at 10 µg/mL: Borreliella burgdorferi, 168 h, read-out: Live Cell % (residual viable B. burgdorferi), ten-day-old stationary phase culture enriched with micro-colonies, 10 μg/mL each drug, 7 days
Experimental: To qualitatively determine the effect of antibiotics, 10 μL of each compound from the pre-diluted plate or pre-diluted stock was added to stationary phase B. burgdorferi culture in the 96-well plate. The final volume per well was adjusted to 100 μL at a concentration of 10 μg/mL for each antibiotic. Plates were sealed and placed in a 33° C. incubator for 7 days. The SYBR Green I/PI viability assay was used to assess the live and dead cells after antibiotic exposure as described (Feng, Wang, Shi, et al., 2014). Briefly, 10 μL of SYBR Green I (10,000×stock, Invitrogen) was mixed with 30 μL propidium iodide (PI, 20 mM) into 1.0 mL of sterile dH2O. Then, 10 μL of staining mixture was added to each well and mixed thoroughly. The plates were incubated at room temperature in the dark for 15 minutes followed by plate reading at excitation wavelength at 485 nm and the fluorescence intensity at 535 nm (green emission) and 635 nm (red emission) in microplate reader (HTS 7000 plus Bio Assay Reader, PerkinElmer Inc., USA). With least-square fitting analysis, the regression equation and regression curve of the relationship between percentage of live bacteria and green/red fluorescence ratios was obtained. The regression equation was used to calculate the percentage of live cells in each well of the 96-well plate.
To qualitatively determine the effect of antibiotics, 10 μL of each compound (final concentration 50 μM) from the pre-diluted plate or pre-diluted stock was added to round body form or stationary phase B. burgdorferi culture in the 96-well plate. The final volume per well was adjusted to 100 μL. Plates were sealed and placed in a 33° C. incubator for 7 days. The SYBR Green I/PI viability assay was used to assess the live and dead cells after antibiotic exposure as described (Feng, Wang, Shi, et al., 2014). Briefly, 10 μL of SYBR Green I (10,000×stock, Invitrogen) was mixed with 30 μL propidium iodide (PI, 20 mM, Sigma-Aldrich) into 1.0 mL of sterile dH2O. Then, 10 μL staining mixture was added to each well and mixed thoroughly. The plates were incubated at room temperature in the dark for 15 minutes followed by plate reading at excitation wavelength at 485 nm and the fluorescence intensity at 535 nm (green emission) and 635 nm (red emission) in microplate reader (HTS 7000 plus Bio Assay Reader, PerkinElmer Inc., USA). With least-square fitting analysis, the regression equation and regression curve of the relationship between percentage of live and dead bacteria as shown in green/red fluorescence ratios was obtained. The regression equation was used to calculate the percentage of live cells in each well of the 96-well plate.
Round body form and ten day old stationary phase (in brackets) B. burgdorferi culture was treated with 10 μg/mL drugs or their combinations for 7 days. Residual viable B. burgdorferi was calculated according to the regression equation and ratio of Green/Red fluorescence obtained by SYBR Green I/PI assay as described (Feng, Wang, Shi, et al., 2014). Direct microscopy counting was employed to rectify the results of the SYBR Green I/PI assay. […] Abbreviation: Dox, doxcycline; CefP, cefoperazone; DAP, daptomycin; CefM, cefmetazole; Scp, sulfachlorpyridazine; Art, artemisinin; Nft, nitrofurantoin.

[3] = system: round body form of B. burgdorferi; test: SYBR Green I/PI assay on amoxicillin-induced round body form; conditions: for Live cell %, round body form: 10 μg/mL drugs or combinations; for Live cell %, round body form / Ratios of green/red fluorescence, Primary screening / Ratios of green/red fluorescence, Rescreening (first column) / Ratios of green/red fluorescence, Rescreening (second column): 7 days; for viability at 50 µM: Borreliella burgdorferi, 168 h, read-out: Residual viable cells (SYBR Green I/PI assay); for Ratios of green/red fluorescence, Primary screening / Ratios of green/red fluorescence, Rescreening (first column) / Ratios of green/red fluorescence, Rescreening (second column): round body form, 50 μM
[4] = system: stationary phase B. burgdorferi persisters (strain B31); test: epifluorescence microscope counting after SYBR Green I/PI staining, FDA drug screen; conditions: Borreliella burgdorferi, 168 h, read-out: Residual viable cells (epifluorescence microscope counting)
[5] = system: stationary phase B. burgdorferi persisters (strain B31); test: SYBR Green I/PI viability assay (plate reader), FDA-approved drug library screen; conditions: for Ratio of Green/Red fluorescence, Primary screening / Ratio of Green/Red fluorescence, Rescreening (first column) / Ratio of Green/Red fluorescence, Rescreening (second column): 50 μM, 7 days, stationary phase; for viability at 50 µM: Borreliella burgdorferi, 168 h, read-out: Residual viable cells (regression equation, SYBR Green I/PI assay)
[6] = system: S. aureus strains (Newman, USA300, CA-409, CA-127, NY-315); test: Rapid SYBR Green/PI antibiotic susceptibility test; type: cell-based, Staphylococcus aureus; conditions: for cut-off (averaged proportion of killed cells) for resistant strains / cut-off (averaged proportion of killed cells) for susceptible strains: 100 μg/mL, 1.5 hours; for percent killed, resistant strain NY-315: kanamycin 25, erythromycin 400 μg/mL; for percent killed, sensitive Newman strain: kanamycin 25, erythromycin 400, ciprofloxacin 50, gentamicin 400 μg/mL; for percent killed, resistant strain CA-409: kanamycin 25, ciprofloxacin 50, gentamicin 400 μg/mL

C[C@@H]1CC[C@H]2[C@@H](C)C(=O)O[C@@H]3O[C@@]4(C)CC[C@@H]1[C@]32OO4 [Artemisinin]
MIC ([1]; Borreliella burgdorferi, growing B. burgdorferi, read-out: MIC): 50 to 100 µg/mL (≈ 177 to 354 µM)
Live cell %, ten day old stationary phase culture (in brackets) ([2]; 7 days): 73%
Live cell %, round body form [3]: 28%
viability at 50 µM [3]: 24%
Ratios of green/red fluorescence, Primary screening [3]: 5.96
Ratios of green/red fluorescence, Rescreening (first column) [3]: 6.14
Ratios of green/red fluorescence, Rescreening (second column) [3]: 6.17

CC[C@H]1OC(=O)[C@H](C)[C@@H](O[C@H]2C[C@@](C)(OC)[C@@H](O)[C@H](C)O2)[C@H](C)[C@@H](O[C@@H]2O[C@H](C)C[C@H](N(C)C)[C@H]2O)[C@](C)(O)C[C@@H](C)CN(C)[C@H](C)[C@@H](O)[C@]1(C)O [Azithromycin]
viability at 50 µM [3]: 47%
Ratios of green/red fluorescence, Primary screening [3]: 6.79
Ratios of green/red fluorescence, Rescreening (first column) [3]: 6.52
Ratios of green/red fluorescence, Rescreening (second column) [3]: 6.42
viability at 50 µM [4]: 77%
Ratio of Green/Red fluorescence, Primary screening [5]: 8.33
Ratio of Green/Red fluorescence, Rescreening (first column) [5]: 8.10
Ratio of Green/Red fluorescence, Rescreening (second column) [5]: 7.92
viability at 50 µM [5]: 80%

CO[C@@]1(NC(=O)CSCC#N)C(=O)N2C(C(=O)O)=C(CSc3nnnn3C)CS[C@@H]21 [Cefmetazole]
Live cell %, ten day old stationary phase culture (in brackets) ([2]; 7 days): 53%
Live cell %, round body form [3]: 34%
viability at 50 µM [3]: 33%
Ratios of green/red fluorescence, Primary screening [3]: 6.13
Ratios of green/red fluorescence, Rescreening (first column) [3]: 6.25
Ratios of green/red fluorescence, Rescreening (second column) [3]: 6.46
Ratio of Green/Red fluorescence, Primary screening [5]: 6.80
Ratio of Green/Red fluorescence, Rescreening (first column) [5]: 7.38
Ratio of Green/Red fluorescence, Rescreening (second column) [5]: 6.00
viability at 50 µM [5]: 43%

Nc1nc(/C(=C/CC(=O)O)C(=O)N[C@@H]2C(=O)N3C(C(=O)O)=CCS[C@H]23)cs1 [Ceftibuten]
viability at 50 µM [4]: 51%
Ratio of Green/Red fluorescence, Primary screening [5]: 6.81
Ratio of Green/Red fluorescence, Rescreening (first column) [5]: 6.78
Ratio of Green/Red fluorescence, Rescreening (second column) [5]: 7.27
viability at 50 µM [5]: 49%

CO/N=C(\C(=O)N[C@@H]1C(=O)N2C(C(=O)O)=C(COC(N)=O)CS[C@H]12)c1ccco1 [Cefuroxime]
viability at 50 µM [3]: 34%
Ratios of green/red fluorescence, Primary screening [3]: 6.29
Ratios of green/red fluorescence, Rescreening (first column) [3]: 6.28
Ratios of green/red fluorescence, Rescreening (second column) [3]: 6.31
viability at 50 µM [4]: 49%
Ratio of Green/Red fluorescence, Primary screening [5]: 6.59
Ratio of Green/Red fluorescence, Rescreening (first column) [5]: 6.84
Ratio of Green/Red fluorescence, Rescreening (second column) [5]: 6.67
viability at 50 µM [5]: 43%

CC(=O)OCC1=C(C(=O)O)N2C(=O)[C@@H](NC(=O)Cc3cccs3)[C@H]2SC1 [Cephalothin]
viability at 50 µM [4]: 49%
Ratio of Green/Red fluorescence, Primary screening [5]: 6.74
Ratio of Green/Red fluorescence, Rescreening (first column) [5]: 6.49
Ratio of Green/Red fluorescence, Rescreening (second column) [5]: 6.55
viability at 50 µM [5]: 40%

CC1(C)S[C@@H]2[C@H](NC(=O)C3(N)CCCCC3)C(=O)N2[C@H]1C(=O)O [Cyclacillin]
viability at 50 µM [4]: 51%
Ratio of Green/Red fluorescence, Primary screening [5]: 6.81
Ratio of Green/Red fluorescence, Rescreening (first column) [5]: 6.88
Ratio of Green/Red fluorescence, Rescreening (second column) [5]: 7.64
viability at 50 µM [5]: 53%

CCN(CCO)CCCC(C)Nc1ccnc2cc(Cl)ccc12 (centres unmarked) [Hcq, hydroxychloroquine]
viability at 10 µg/mL [2]: 71%

Clc1ccc(COC(Cn2ccnc2)c2ccc(Cl)cc2Cl)c(Cl)c1 (centres unmarked) [Mcz, miconazole]
sensitivity of log phase / multiplying B. burgdorferi (words, FIG. 12) ([1]; MIC test): less potent
viability at 10 µg/mL [2]: 65%

O=C1CN(/N=C/c2ccc([N+](=O)[O-])o2)C(=O)N1 [Nft, nitrofurantoin]
Live cell %, ten day old stationary phase culture (in brackets) ([2]; 7 days): 82%
Live cell %, round body form [3]: 33%

CC1COc2c(N3CCN(C)CC3)c(F)cc3c(=O)c(C(=O)O)cn1c23 (centres unmarked) [Ofl, ofloxacin]
viability at 10 µg/mL [2]: 81%

CO[C@H]1/C=C/O[C@@]2(C)Oc3c(C)c(O)c4c(O)c(c(/C=N/N5CCN(C)CC5)c(O)c4c3C2=O)NC(=O)/C(C)=C\C=C\[C@H](C)[C@H](O)[C@@H](C)[C@@H](O)[C@@H](C)[C@H](OC(C)=O)[C@@H]1C [Rif, rifampin]
viability at 10 µg/mL [2]: 82%

Nc1ccc(S(=O)(=O)Nc2ccc(Cl)nn2)cc1 [Scp, sulfachlorpyridazine]
Live cell %, ten day old stationary phase culture (in brackets) ([2]; 7 days): 68%
residual viable / live cells, stated in text for stationary phase B. burgdorferi ([2]; drug combination test, refers to Table 6): about 38%
Live cell %, round body form [3]: 38%

CN(C)[C@@H]1C(O)=C(C(N)=O)C(=O)[C@@]2(O)C(O)=C3C(=O)c4c(O)cccc4[C@@](C)(O)[C@H]3C[C@@H]12 [Tetracycline]
viability at 50 µM [4]: 54%
viability at 50 µM [5]: 50%

CC[C@H]1OC(=O)[C@H](C)[C@@H](O[C@H]2C[C@@](C)(OC)[C@@H](O)[C@H](C)O2)[C@H](C)[C@@H](O[C@@H]2O[C@H](C)C[C@H](N(C)C)[C@H]2O)[C@](C)(O)C[C@@H](C)C(=O)[C@H](C)[C@@H](O)[C@]1(C)O [erythromycin]
cut-off (averaged proportion of killed cells) for resistant strains [6]: −0.1
cut-off (averaged proportion of killed cells) for susceptible strains [6]: −0.4
percent killed, resistant strain NY-315 ([6]; 30 minutes): 17%
percent killed, sensitive Newman strain ([6]; 30 minutes): 50%

NC[C@H]1O[C@H](O[C@H]2[C@H](O)[C@@H](O[C@H]3O[C@H](CO)[C@@H](O)[C@H](N)[C@H]3O)[C@H](N)C[C@@H]2N)[C@H](O)[C@@H](O)[C@@H]1O [kanamycin]
cut-off (averaged proportion of killed cells) for resistant strains [6]: −0.01
cut-off (averaged proportion of killed cells) for susceptible strains [6]: −0.2
percent killed, resistant strain CA-127 ([6]; 30 minutes, kanamycin 25, ciprofloxacin 50 μg/mL): 5%
percent killed, resistant strain CA-409 ([6]; 30 minutes): 5%
percent killed, resistant strain NY-315 ([6]; 30 minutes): 5%
percent killed, sensitive Newman strain ([6]; 30 minutes): 27%

gentamicin
cut-off (averaged proportion of killed cells) for resistant strains [6]: −0.2
cut-off (averaged proportion of killed cells) for susceptible strains [6]: −0.3
percent killed, resistant strain CA-409 ([6]; 30 minutes): 10%
percent killed, sensitive Newman strain ([6]; 30 minutes): 27%

polymyxin B [Pmb]
Live Cell % (residual viable B. burgdorferi) ([2]; ten-day-old stationary phase culture enriched with micro-colonies, 10 μg/mL each drug, 7 days): 77% ^c
